Residues, ends and D or L forms follow the SMILES beside them.
Key:
[1] = molecular target: T1, platelet fibrinogen receptor (Homo sapiens, UniProt P05106+P08514); test: Inhibition of platelet-fibrinogen binding (125I-fibrinogen, ADP-stimulated washed platelets); conditions: 4×10^7 human platelets, 125I-fibrinogen 0.1×10^-6 M, ADP 5×10^-6 M, CaCl2 0.5 mM, 15 mn incubation
T1 construct: endogenous in cells; host or cells: washed human blood platelets, stimulated with ADP
Protocol: The platelets were isolated from 60 ml of human blood collected in the anticoagulant buffer ACD in a ratio of 1 volume of ACD to 6 volumes of blood.
The blood is then centrifuged for 20 mn at a 1,000 r/mn (JOUAN E 96 centrifuge) at room temperature.
The PRP (plasma rich in platelets) is decanted and treated with 0.1 μM PGE1, then centrifuged for 15 mn at 2,000 r/mn.
The platelets obtained in the pellet are then taken up in 1 ml of Tyrode buffer-albumin, pH 7.2, prepared with the following composition:
The platelets are washed on a column of Sepharose CL 2B using Tyrode buffer-albumin, pH 7.2, then the platelets are recovered and diluted to a concentration of 2×10^8 platelets/ml.
The assays are carried out on 4×10^7 platelets in the presence of CaCl2 (0.5 mM), ^125 I-fibrinogen 0.1×10^-6 M) and different concentrations of peptide, and the stimulation of the platelets is induced by ADP (5×10^-6 M). After incubation for 15 mn and deposition on a 15% saccharose solution the ^125 I-fibrinogen-plateletcomplex is isolated by centrifugation at 12,000 r/mn for 2 mn.
This table also presents the sequence of the peptides.

[2] = system: platelets; test: Inhibition of platelet aggregation (ADP-induced, washed platelets with fibrinogen); assay type: cell-based; conditions: isolated human platelets, ADP 5×10^-6 M, fibrinogen 1.1×10^-6 M
Protocol: The effect of the synthetic peptides on platelet aggregation was studied on platelets isolated as previously described for the study of the binding to fibrinogen. The stimulation of the platelets was also brought about by 5×10^-6 M ADP and the assay was carried out in the presence of 1.1×10^-6 M fibrinogen and of […] CaCl2.

T1 sequence (P08514 32-887 limits assumed): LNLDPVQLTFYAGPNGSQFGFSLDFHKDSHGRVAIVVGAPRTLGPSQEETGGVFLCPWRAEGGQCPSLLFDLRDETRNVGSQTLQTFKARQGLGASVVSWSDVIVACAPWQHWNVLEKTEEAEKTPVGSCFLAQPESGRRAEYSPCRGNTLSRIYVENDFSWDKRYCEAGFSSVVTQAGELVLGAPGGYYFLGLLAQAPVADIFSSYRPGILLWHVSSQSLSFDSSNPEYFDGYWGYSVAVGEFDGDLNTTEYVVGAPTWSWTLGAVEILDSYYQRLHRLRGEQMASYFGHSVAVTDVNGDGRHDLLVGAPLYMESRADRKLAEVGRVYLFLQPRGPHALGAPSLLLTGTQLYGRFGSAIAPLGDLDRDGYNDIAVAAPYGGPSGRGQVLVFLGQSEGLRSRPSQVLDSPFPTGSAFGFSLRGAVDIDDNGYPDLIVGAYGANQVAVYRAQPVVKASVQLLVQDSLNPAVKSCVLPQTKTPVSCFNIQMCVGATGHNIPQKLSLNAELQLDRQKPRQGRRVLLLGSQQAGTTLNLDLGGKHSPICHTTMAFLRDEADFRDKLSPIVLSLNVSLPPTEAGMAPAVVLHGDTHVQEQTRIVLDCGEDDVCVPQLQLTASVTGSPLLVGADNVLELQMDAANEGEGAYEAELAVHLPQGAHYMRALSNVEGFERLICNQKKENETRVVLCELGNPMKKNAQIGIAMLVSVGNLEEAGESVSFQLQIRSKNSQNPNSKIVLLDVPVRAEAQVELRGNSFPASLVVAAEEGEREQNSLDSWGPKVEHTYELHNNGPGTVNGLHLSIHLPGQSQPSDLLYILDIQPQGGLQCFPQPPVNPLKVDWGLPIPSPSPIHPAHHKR
T1 sequence (P08514 891-1039 partner limits assumed): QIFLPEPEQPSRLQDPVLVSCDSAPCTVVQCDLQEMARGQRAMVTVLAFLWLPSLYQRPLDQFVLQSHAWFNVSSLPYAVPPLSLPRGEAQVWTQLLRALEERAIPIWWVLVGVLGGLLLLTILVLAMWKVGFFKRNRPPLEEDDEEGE
T1 sequence (P05106 27-788): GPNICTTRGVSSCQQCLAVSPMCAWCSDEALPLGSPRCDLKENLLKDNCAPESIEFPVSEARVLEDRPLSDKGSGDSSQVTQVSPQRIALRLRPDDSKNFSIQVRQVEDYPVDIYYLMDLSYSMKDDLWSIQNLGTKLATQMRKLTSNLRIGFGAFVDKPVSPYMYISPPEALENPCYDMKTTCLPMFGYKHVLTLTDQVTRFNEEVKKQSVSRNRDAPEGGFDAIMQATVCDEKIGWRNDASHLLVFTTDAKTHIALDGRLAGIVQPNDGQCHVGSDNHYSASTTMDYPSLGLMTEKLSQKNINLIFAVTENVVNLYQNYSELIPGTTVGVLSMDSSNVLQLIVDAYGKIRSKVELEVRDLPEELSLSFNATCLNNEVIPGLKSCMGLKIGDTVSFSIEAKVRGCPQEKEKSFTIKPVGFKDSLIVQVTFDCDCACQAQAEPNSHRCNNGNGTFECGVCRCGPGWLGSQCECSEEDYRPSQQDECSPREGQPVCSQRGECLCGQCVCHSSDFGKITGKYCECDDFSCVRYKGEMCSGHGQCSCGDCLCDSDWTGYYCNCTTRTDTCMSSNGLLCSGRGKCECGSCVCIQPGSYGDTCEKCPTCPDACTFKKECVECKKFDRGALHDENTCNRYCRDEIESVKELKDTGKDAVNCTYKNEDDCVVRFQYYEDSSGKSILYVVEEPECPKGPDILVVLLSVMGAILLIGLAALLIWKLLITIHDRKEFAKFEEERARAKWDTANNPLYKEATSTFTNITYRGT

| IC50 [1] | IC50 [2] | Compound |
| --- | --- | --- |
| 7 µM | 15 µM | N=C(N)NCCC[C@H](N)C(=O)NCC(=O)N[C@@H](CC(=O)O)C(=O)N[C@@H](Cc1ccccc1)C(=O)O [RGDF, H-Arg-Gly-Asp-Phe-OH] (H-RGDF-OH) |
|  | 10 µM | N=C(N)NCCC[C@H](N)C(=O)NCC(=O)N[C@@H](CC(=O)O)C(=O)N[C@@H](Cc1c[nH]c2ccccc12)C(=O)O [RGDW, H-Arg-Gly-Asp-Trp-OH] (H-RGDW-OH) |
| 3.6 µM |  | NC(N)=NCCC[C@H](N)C(=O)NCC(=O)N[C@@H](CC(=O)O)C(=O)N[C@@H](Cc1c[nH]c2ccccc12)C(=O)O [RGDW, H-Arg-Gly-Asp-Trp-OH] (H-RGDW-OH) |
| 20 µM | 20 µM | H-LRGDF-OH [LRGDF, H-Leu-Arg-Gly-Asp-Phe-OH] |

From patent US5100875A, “Novel peptides having plateler aggregation inhibitory activity” (Institut National de la Sante et de la Recherche Medicale …, priority 1986, dated 1992)
